# Where “and” joins values, the source holds several entries; their conditions need not be identical. Equal entries are not always repeated. Marks after values point to notes of the source that are not given here.
# Assays:
# [1] = Basal cytotoxicity test, Neutral Red Uptake (NRU) assay; format: cell-based; conditions: for LD50 at 24 h: mouse, po, acute oral LD50 calculated from 3T3 NRU IC50 by regression formula, read-out: Basal cytotoxicity Estimated* LD50; for IC50 at 24 h: normal mouse embryo fibroblasts, read-out: Cytotoxicity IC50, 3T3
# Method in brief: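 Balb/c 3T3 fibroblasts (9000 cells/well) exposed 24 h to compounds at 1–1000 μg/ml in DMEM with 5% FBS. Viability by Neutral Red uptake (3 h, 0.05 mg/mL), absorbance at 540 nm relative to untreated cells; IC50 from concentration–response.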
# B16-F10 melanoma cells = test: Melanoma model of lung metastasis in C57BL/6 mice; format: in vivo, mouse; conditions: total dose 140 mg/kg; for Inhibition of melanoma metastasis in lung: s.c. Day 1, 7, 8, 9, 10, 11, 14, 20 mg/kg, day 21; for Animals (group of six) without melanoma metastasis: s.c.
# Procedure: B16-F10 cells (10,000/0.1 ml PBS) were injected i.v. into syngeneic mice. The number of macroscopic lung metastases was determined 21 days later.
# C57BL/6 mice were injected with 100,000 B16-F10 melanoma cells into the mice via the tail vein and treatment started 24 hr later with subcutaneous injections (s.c.) of compounds administered according to the following scheme: 1, 7, 8, 9, 10, 11 and 14th days in dose 20 mg/kg. Mice in the control group were similarly given doses of 0.1 mL of water with DMSO (DMSO final concentration <1%). Twenty-one days later, all mice were anesthetized with ketamine/xylazine and euthanized, the mice were sacrificed and the black melanoma nodules on the lungs were measured. In each experiment, mice were weighed twice weekly.
# 4T1 cells = test: Orthotropic model of 4T1 murine metastatic breast cancer in BALB/c mice; format: in vivo, mouse; conditions: 4T1 orthotropic; for Increase of spleen weight (splenomegaly) compared with healthy animals: control with tumors 316%
# Procedure: Orthotropic model of mouse breast cancer was developed by injection of 4T1 cells in the mammary fat pad of syngeneic BALB/c mice. In this case, 4T1 cells develops solid tumors following by metastasis in lung, liver, lymph nodes, and brain (Aslakson at al., Cancer Res, 1992, 52, 1399-1405).
# In our experiments seven-week-old female BALB/c mice were injected orthotopically into the fourth mammary fat pad with 10^5 4T1 cells suspended in 0.01 mL of PBS on day zero of the study. The compounds dissolved in DMSO, diluted with 0.1 mL water (DMSO final concentration 1%) and injected s.c. The compounds were administered at 1, 2, 3, 11 days, dose 20 mg/kg. Mice in the untreated group were similarly given four doses of 0.1 mL of water with DMSO. Tumor volume (tumor volume V=[…], wherein “a” is the maximal, and “b”—the minimal tumor diameter) was calculated twice per week. The mice were examined every other day on appearance, weight and behavior. The mice were sacrificed at day 16 of the experiment by decapitation under ketamine/xylazine anesthesia. After euthanasia, the mice were dissected. The primary tumor, liver and spleen were removed, weighed and studied. All metastases in the internal organs were described.
# 4T1 carcinoma cells = test: 4T1 model of lung metastasis (tail vein) in Balb/c mice; format: in vivo, mouse; conditions: for % of the total area occupied by metastases, % (control = 100) / % of the total area occupied by metastases, Mean ± SD: 20 mg/kg, days 1, 4, 7, 9, 11, 14
# Procedure: Compounds were administered s.c. at 1, 4, 7, 9, 11 and 14th days. 4T1 cells (10,000/0.1 ml PBS) were injected i.v. into syngeneic mice. The metastasis at day 16 are shown for each mouse, and averages are provided for illustration.
# Balb/c mice were injected with 100,000 4T1 […] cancer cells into the tail vein and treatment started 24 hr later with subcutaneous (s.c.), intraperitoneal (i.p.) injections or oral administration (p.o.) of compounds according to the following scheme: 1, 4, 7, 9, 11 and 14th days in dose 20 or 40 mg/kg. Compounds were dissolved in DMSO and the solution were diluted by water (DMSO final concentration <1%). Mice in the control group were similarly given doses of 0.1 mL of water with DMSO. Twenty-one days later, all mice were anesthetized with ketamine/xylazine and euthanized, the mice were sacrificed spleens were excised from the mice and weighed. In each experiment, mice were weighed twice weekly.
# (Lewis et al, Cancer Res, 2005, 65) Pulmonary metastases were enumerated by intra-tracheal injection of India ink (15% India Ink, 85% water, 3 drops NH4OH/100 ml). India ink injected lungs were washed in Feket's solution (300 ml 70% EtOH, 30 ml 37% formaldehyde, 5 ml glacial acetic acid) and then placed fresh Feket's solution overnight. […] White tumor nodules against a black lung background were measured.
SMILES,LD50 at 24 h [1],IC50 at 24 h [1],Inhibition of melanoma metastasis in lung (B16-F10 melanoma cells),Animals (group of six) without melanoma metastasis (B16-F10 melanoma cells),Formation of metastases (4T1 cells),Increase of spleen weight (splenomegaly) compared with healthy animals (4T1 cells),Effect on development of splenomegaly (4T1 carcinoma cells; 4T1 i.v.),"Spleen weight increase (4T1 carcinoma cells; 4T1 i.v., dose not stated, control with tumor +147%)","% of the total area occupied by metastases, % (control = 100) (4T1 carcinoma cells; i.p.)","% of the total area occupied by metastases, Mean ± SD (4T1 carcinoma cells; i.p.)","% of the total area occupied by metastases, % (control = 100) (4T1 carcinoma cells; p.o.)","% of the total area occupied by metastases, Mean ± SD (4T1 carcinoma cells; p.o.)","% of the total area occupied by metastases, % (control = 100) (4T1 carcinoma cells; s.c.)","% of the total area occupied by metastases, Mean ± SD (4T1 carcinoma cells; s.c., control 50 ± 33)",Prevention of formation of 4T1 carcinoma lung metastasis (4T1 carcinoma cells; five mice per group)
"COC(=O)c1cc2ccc3c(Br)c(CN4CCN(C)CC4)[se]c3c2oc1=O [Compound I-10, Methyl 7-bromo-8-((4-methylpiperazin-1-yl)methyl)-2-oxo-2H-selenopheno[3,2-h]chromene-3-carboxylate]",4300 µmol/kg and 2300 mg/kg,86 ± 5 µM,74%,five,dramatically reduces the formation of metastases,256%,does not affect the development of splenomegaly,63%,86%,43 ± 40%,32** %,16 ± 18%,19* %,10 ± 29%,–
"O=C(O)c1cc2ccc3c(Br)c(C4(O)CCCCC4)[se]c3c2oc1=O [Compound I-11, 7-Bromo-8-(1-hydroxycyclohexyl)-2-oxo-2H-selenopheno[3,2-h]chromene-3-carboxylic acid]",> 5800 µmol/kg and > 2730 mg/kg,> 213 µM,96%,four,dramatically reduces the formation of metastases,198%,–,–,62%,31 ± 41%,28** %,14 ± 31%,39** %,20 ± 30%,98%

# Source: patent US10561681B2, “Antimetastatic 2H-selenopheno[3,2-h]chromenes, synthesis thereof, and methods of using same agents” (Latvian Institute of Organic Synthesis, priority 2016, dated 2020)
